In paper PMC4476799, “Englerin A Agonizes the TRPC4/C5 Cation Channels to Inhibit Tumor Cell Line Proliferation” (PLoS ONE, 2015):
Where two headings read alike, the source gives them in different places.

System: cancer cell lines from the cancer cell line encyclopedia (CCLE)
Test: Cell line profiling (CLiP) proliferation experiment
Assay type: cell-based
Set-up: key to Compound Activity (1-inactive;2-active): 1-inactive; 2-active; ACTIVITY_AREA: scale not given here; AMAX: unit not given here
Conditions: for IC50: read-out: Crossing Point; for EC50: read-out: Inflection Point
Protocol: Compound profiling experiment and data analysis was performed as previously described. Data was imported and plotted using the Tibco Spotfire DXP application. Lines were categorized as sensitive, intermediate and refractory as follows: Amax<-40 & Inflection Point <2 ~ Sensitive, Amax>-20 & Inflection Point >10 ~ Refractory, all else were called Intermediate. Cancer Cell line HG-U133 Plus 2 data was processed and normalized as described. […] Five sets of refractory cell lines were generated from the pool of refractory cell lines trying to match the lineage composition of the set of sensitive cell lines. The limma package was used as previously described to perform the statistical comparison.

[1] = UM-UC-3 cell line, urinary_tract, transitional_cell_carcinoma
[2] = VM-CUB1 cell line, urinary_tract, transitional_cell_carcinoma
[3] = VMRC-RCW cell line, kidney, renal_cell_carcinoma
[4] = VMRC-RCZ cell line, kidney, renal_cell_carcinoma
[5] = WSU-DLCL2 cell line, haematopoietic_and_lymphoid_tissue, diffuse_large_B_cell_lymphoma
[6] = YKG1 cell line, central_nervous_system, astrocytoma_Grade_IV
[7] = Z-138 cell line, haematopoietic_and_lymphoid_tissue, mantle_cell_lymphoma
[8] = ZR-75-1 cell line, breast, ductal_carcinoma
[9] = cell line 8-MG-BA, central_nervous_system, astrocytoma_Grade_IV
[10] = cell line 697, haematopoietic_and_lymphoid_tissue, acute_lymphoblastic_leukaemia
[11] = cell line 769-P, kidney, clear_cell_renal_cell_carcinoma
[12] = cell line 786-O, kidney, clear_cell_renal_cell_carcinoma
[13] = cell line 8305C, thyroid, anaplastic_carcinoma
[14] = cell line 23132/87, stomach, adenocarcinoma
[15] = cell line A4/Fuk, haematopoietic_and_lymphoid_tissue, diffuse_large_B_cell_lymphoma
[16] = cell line A-204, soft_tissue, NS
[17] = cell line BDCM, haematopoietic_and_lymphoid_tissue, acute_lymphoblastic_B_cell_leukaemia
[18] = cell line BHY, upper_aerodigestive_tract, squamous_cell_carcinoma
[19] = cell line BICR 6, upper_aerodigestive_tract, squamous_cell_carcinoma
[20] = cell line BICR 22, upper_aerodigestive_tract, squamous_cell_carcinoma
[21] = cell line CAL-29, urinary_tract, transitional_cell_carcinoma
[22] = cell line DOHH-2, haematopoietic_and_lymphoid_tissue
[23] = cell line EB1, haematopoietic_and_lymphoid_tissue
[24] = cell line EB2, haematopoietic_and_lymphoid_tissue
[25] = cell line EM-2 (haematopoietic_and_lymphoid_tissue, blast_phase_chronic_myeloid_leukaemia)
[26] = cell line EM-2, haematopoietic_and_lymphoid_tissue
[27] = cell line EOL-1, haematopoietic_and_lymphoid_tissue
[28] = cell line FaDu, upper_aerodigestive_tract

**Q.** Which results are given for CC(C)[C@@]12C[C@@H](O)[C@@](C)(O1)[C@@H]1CC[C@@H](C)[C@H]1[C@@H]2OC(=O)/C=C/c1ccccc1 [Englerin B]?
**A.** ACTIVITY_AREA [1]: 37.41; AMAX [1]: -54.71; RESPONSE [1]: INTERMEDIATE; ACTIVITY_AREA [2]: 96.55; AMAX [2]: -58.31; RESPONSE [2]: INTERMEDIATE; IC50 (VMRC-RCW (kidney)): > 30 µM; ACTIVITY_AREA [3]: 10.22; AMAX [3]: -25.65; IC50 [3]: > 30 µM; IC50 (VMRC-RCZ (kidney)): > 30 µM; ACTIVITY_AREA [4]: 26.25; AMAX [4]: -46.92; RESPONSE [4]: INTERMEDIATE; IC50 [4]: > 30 µM; IC50 (WM983B, WM-983B (skin)): > 30 µM; IC50 (WM983B, WM-983B cell line, skin, NS): > 30 µM; ACTIVITY_AREA (WM1799 cell line, skin, NS): 44.8; AMAX (WM1799 cell line, skin, NS): -38.05; RESPONSE (WM1799 cell line, skin, NS): INTERMEDIATE; IC50 (WM-88 (skin)): > 30 µM; ACTIVITY_AREA (WM-88 cell line, skin, NS): 55.16; AMAX (WM-88 cell line, skin, NS): -34.98; RESPONSE (WM-88 cell line, skin, NS): INTERMEDIATE; IC50 (WM-88 cell line, skin, NS): > 30 µM; ACTIVITY_AREA (WM-115 cell line, skin, NS): 73.29; AMAX (WM-115 cell line, skin, NS): -15.29; RESPONSE (WM-115 cell line, skin, NS): REFRACTORY; ACTIVITY_AREA (WM-266-4 cell line, skin, NS): 31.57; AMAX (WM-266-4 cell line, skin, NS): -38.36; RESPONSE (WM-266-4 cell line, skin, NS): INTERMEDIATE; ACTIVITY_AREA (WM-793 cell line, skin, NS): 26.94; AMAX (WM-793 cell line, skin, NS): -46.79; RESPONSE (WM-793 cell line, skin, NS): INTERMEDIATE; ACTIVITY_AREA (WM-983B cell line, skin, NS): 63.66; AMAX (WM-983B cell line, skin, NS): -43.12; RESPONSE (WM-983B cell line, skin, NS): INTERMEDIATE; IC50 (WM-1799, WM1799 (skin)): > 30 µM; IC50 (WM-1799, WM1799 cell line, skin, NS): > 30 µM; IC50 (WS1 (skin)): > 30 µM; IC50 (WS1, WS1 cell line, skin): > 30 µM; ACTIVITY_AREA (WS1 cell line, skin): 21.77; AMAX (WS1 cell line, skin): -26.6; RESPONSE (WS1 cell line, skin): INTERMEDIATE; ACTIVITY_AREA [5]: 47.3; AMAX [5]: -92.11; RESPONSE [5]: INTERMEDIATE; ACTIVITY_AREA (YAPC cell line, pancreas, NS): 25.5; AMAX (YAPC cell line, pancreas, NS): -44.67; RESPONSE (YAPC cell line, pancreas, NS): INTERMEDIATE; ACTIVITY_AREA [6]: 26.45; AMAX [6]: -20.02; RESPONSE [6]: INTERMEDIATE; ACTIVITY_AREA (YMB-1 cell line, breast, NS): 29.44; AMAX (YMB-1 cell line, breast, NS): -63.02; RESPONSE (YMB-1 cell line, breast, NS): INTERMEDIATE; IC50 (YMB-1 cell line, breast, NS): 21 µM; EC50 (YMB-1 cell line, breast, NS): 21 µM; ACTIVITY_AREA [7]: 90.79; AMAX [7]: -65.74; RESPONSE [7]: INTERMEDIATE; ACTIVITY_AREA [8]: 42.06; AMAX [8]: -53.16; Compound Activity (1-inactive;2-active) (call per compound): 1; Compound Activity (1-inactive;2-active) (call per compound, repeated on every line): 1; Compound Activity (1-inactive;2-active) (call printed on every cell-line row): 1; ACTIVITY_AREA [9]: 36.6; AMAX [9]: -52.73; RESPONSE [9]: INTERMEDIATE; ACTIVITY_AREA (cell line 59M, ovary, NS): 26.55; AMAX (cell line 59M, ovary, NS): -38.54; RESPONSE (cell line 59M, ovary, NS): INTERMEDIATE; IC50 (cell line 59M, ovary, NS): > 30 µM; IC50 (cell line 59M): > 30 µM; IC50 [10]: 18.6 µM; EC50 [10]: 18.6 µM; ACTIVITY_AREA [11]: 13.6; AMAX [11]: -49.16; RESPONSE [11]: INTERMEDIATE; ACTIVITY_AREA [12]: 46.1; AMAX [12]: -38.05; RESPONSE [12]: INTERMEDIATE; Compound Activity (1-inactive;2-active) (cell line 1321N1 (central_nervous_system, astrocytoma)): 1; ACTIVITY_AREA [13]: 19.13; AMAX [13]: -42.05; RESPONSE [13]: INTERMEDIATE; ACTIVITY_AREA [14]: 152.84; AMAX [14]: -72.44; RESPONSE [14]: INTERMEDIATE; IC50 [14]: 15.3 µM; EC50 [14]: 15.3 µM; IC50 [15]: 18.1 µM; EC50 [15]: 18.1 µM; ACTIVITY_AREA [16]: 22.22; AMAX [16]: -45.81; RESPONSE [16]: INTERMEDIATE; IC50 (cell line AGS, stomach, adenocarcinoma): 5.71 µM; IC50 [17]: 16.9 µM; EC50 [17]: 16.9 µM; IC50 [18]: 23.5 µM; EC50 [18]: 9.33 µM; IC50 [19]: 23 µM; EC50 [19]: 23 µM; IC50 (cell line BICR 16, upper_aerodigestive_tract, squamous_cell_carcinoma): 9.26 µM; IC50 [20]: 18.8 µM; EC50 [20]: 15 µM; IC50 (cell line C32, skin, NS): > 30 µM; IC50 [21]: 15.9 µM; EC50 [21]: 13.1 µM; Compound Activity (1-inactive;2-active) (cell line COLO-800 (skin, NS)): 1; Compound Activity (1-inactive;2-active) (cell line COV504 (ovary, NS)): 1; Compound Activity (1-inactive;2-active) (cell line Caov-3 (ovary, adenocarcinoma)): 1; Compound Activity (1-inactive;2-active) (cell line DBTRG-05MG (central_nervous_system, astrocytoma_Grade_IV)): 1; Compound Activity (1-inactive;2-active) (cell line DLD-1 (large_intestine, adenocarcinoma)): 1; ACTIVITY_AREA (cell line DMS 79, lung): 49.26; AMAX (cell line DMS 79, lung): -10.4; RESPONSE (cell line DMS 79, lung): REFRACTORY; ACTIVITY_AREA [22]: 33.67; AMAX [22]: -98.82; RESPONSE [22]: INTERMEDIATE; Compound Activity (1-inactive;2-active) (cell line DU 145 (prostate, NS)): 1; ACTIVITY_AREA (cell line DU 145, prostate): 176.13; AMAX (cell line DU 145, prostate): -54.93; RESPONSE (cell line DU 145, prostate): INTERMEDIATE; Compound Activity (1-inactive;2-active) (cell line DV-90 (lung, adenocarcinoma)): 1; ACTIVITY_AREA (cell line DV-90, lung): 23.59; AMAX (cell line DV-90, lung): -71.93; RESPONSE (cell line DV-90, lung): INTERMEDIATE; ACTIVITY_AREA [23]: 13.39; AMAX [23]: -56.14; RESPONSE [23]: INTERMEDIATE; IC50 [23]: 28.7 µM; ACTIVITY_AREA [24]: 28.45; AMAX [24]: -57.08; RESPONSE [24]: INTERMEDIATE; IC50 [24]: 25.8 µM; ACTIVITY_AREA (cell line EBC-1, lung): 56.14; AMAX (cell line EBC-1, lung): -53.25; RESPONSE (cell line EBC-1, lung): INTERMEDIATE; Compound Activity (1-inactive;2-active) (cell line EFM-19 (breast, ductal_carcinoma)): 1; ACTIVITY_AREA (cell line EFM-19, breast): 28.98; AMAX (cell line EFM-19, breast): -31.96; RESPONSE (cell line EFM-19, breast): INTERMEDIATE; ACTIVITY_AREA (cell line EFM-192A, breast): 78.14; AMAX (cell line EFM-192A, breast): -57.28; RESPONSE (cell line EFM-192A, breast): INTERMEDIATE; Compound Activity (1-inactive;2-active) [25]: 1; IC50 [25]: > 30 µM; ACTIVITY_AREA [26]: 14.33; AMAX [26]: -44.27; RESPONSE [26]: INTERMEDIATE; IC50 [26]: > 30 µM; ACTIVITY_AREA (cell line EN, endometrium): 5.5; AMAX (cell line EN, endometrium): -23.22; RESPONSE (cell line EN, endometrium): INTERMEDIATE; IC50 (cell line EN, endometrium): > 30 µM; IC50 (cell line EN): > 30 µM; ACTIVITY_AREA [27]: 60.59; AMAX [27]: -94.78; RESPONSE [27]: INTERMEDIATE; ACTIVITY_AREA (cell line ES-2, ovary): 44.96; AMAX (cell line ES-2, ovary): -44.71; RESPONSE (cell line ES-2, ovary): INTERMEDIATE; IC50 (cell line ES-2, ovary): > 30 µM; IC50 (cell line ES-2): > 30 µM; ACTIVITY_AREA (cell line ESS-1, endometrium): 41.09; AMAX (cell line ESS-1, endometrium): -72.67; RESPONSE (cell line ESS-1, endometrium): INTERMEDIATE; ACTIVITY_AREA (cell line FU-OV-1, ovary): 158.99; AMAX (cell line FU-OV-1, ovary): -69.93; RESPONSE (cell line FU-OV-1, ovary): INTERMEDIATE; IC50 (cell line FU-OV-1, ovary): 3.19 µM; ACTIVITY_AREA [28]: 21.14; AMAX [28]: -61.31; RESPONSE [28]: INTERMEDIATE; ACTIVITY_AREA (cell line G-361, skin): 55.99; AMAX (cell line G-361, skin): -32.98; RESPONSE (cell line G-361, skin): INTERMEDIATE; ACTIVITY_AREA (cell line G-401, soft_tissue): 47.08; AMAX (cell line G-401, soft_tissue): -74.97; RESPONSE (cell line G-401, soft_tissue): INTERMEDIATE; ACTIVITY_AREA (cell line G-402, soft_tissue): 90.01; AMAX (cell line G-402, soft_tissue): -70.25; RESPONSE (cell line G-402, soft_tissue): INTERMEDIATE
